Patent US20240173329A1, “BELVARAFENIB FOR USE IN TREATMENT OF BRAIN CANCERS” (Genentech, Inc., priority 2021, published 2024)
Where two headings read alike, the source gives them in different places.

Key:
EPHA2 = EPHA2 (Homo sapiens, UniProt P29317); experiment: panel of 189 kinase assays; format: biochemical
RAF-1 (CRAF) = RAF-1 (CRAF) (Homo sapiens, UniProt P04049); experiment: RAF kinase inhibition in vitro; format: biochemical
[1] = Pharmacokinetic profile and brain distribution in mice after oral administration; format: in vivo, mice (ICR); conditions: for Kp / Cmax / Tmax / AUC(0-t) / MRT last / half-life / AUC(0-inf): ICR (CD-1), mouse
Protocol: Example 1 evaluated pharmacokinetic profile and brain distribution of belvarafenib in mice after oral administration.
The mouse strain was ICR (CD-1®) supplied by Orient Bio Inc., Korea.
The mice were kept in conventional animal lab cages for 5 days for acclimation before the start of the experiment. The cages were polysulfone 1291H (W425×D266×H185 mm, Techniplast, Italy). Twelve mice were housed in each cage at a temperature of 22±2° C., a relative humidity of 50±20%, a ventilation frequency of 10-15 times/h, a 12 hour light/dark cycle, a light intensity of 150-300 Lux, at least weekly cage replacement. The mice were fed Picolab Rodent diet (5053, Lab Diet, USA) with abundant tap water.
The mice were dosed with belvarafenib dihydrochloride, 99.6% purity, that was stored at room temperature. Dosing was based on active ingredient free base and was corrected for assay and water content. The dosing vehicle was DMSO (5%), cremophore EL (5%), and deionized water (90%). Belvarafenib for dosing (28.08 mg) was dissolved in 14.40 mL of the vehicle for a final concentration of 1.950 mg/mL.
In a single one day dosing regimen, mice were fasted overnight. The body weight of the mice was measured on the day of treatment, from which dosing volumes were set. […] The mice were fed 4 hours post-dose.
Blood (0.3 mL) was collected from the retro-orbital plexus at 0.5, 1, 2, 4, 7, 24, 48, and 72 hours after belvarafenib administration. Plasma was obtained by centrifugation at 12,000 rpm for 2 minutes (Eppendorf) and then harvested and stored at −20° C. (Panasonic, MDF-U334-PK) until analysis.
After bloodletting of mice at each time point, the brain was collected immediately without perfusion. Brain tissue was washed one to two times with saline to remove surface blood. The brains were then trimmed. The collected brain tissue was accurately weighed and mixed with 4-fold saline based on brain weight (a final dilution factor of 5-fold). Each brain sample was then homogenized and placed in a 1.5 mL tube and stored at −20° C. (Panasonic, MDF-U334-PK) until analysis.
Plasma and brain of untreated animals were similarly obtained for use as a blank matrix.
Plasma and brain concentrations of belvarafenib determined by analysis using LC-MS/MS (Waters UPLC H-Class/Xevo TQ (Waters USA)).
Pharmacokinetic parameters of belvarafenib were calculated from plasma and brain concentration-time data by a non-compartmental method using Phoenix™ WinNonlin 8.1 (Certara, USA). The peak plasma and brain concentration (Cmax) and the corresponding time (Tmax) were directly obtained from the raw data. The area under the plasma curve (AUClast) was obtained by linear-log trapezoidal summation. Other PK parameters such as AUC from dosing time extrapolated to infinity (AUCinf), half-life (t1/2) and mean residence time (MTRlast) were calculated using WinNonlin. The plasma and brain concentrations of belvarafenib were presented as MEAN±S.D. The brain to plasma (B/P) ratio of Belvarafenib was calculated by dividing AUClast in the brain by AUClast in the plasma.

EPHB2 = target: T1, EPHB2 (Homo sapiens, UniProt P29323); experiment: panel of 189 kinase assays; format: biochemical
T1 sequence (P29323 19-1055): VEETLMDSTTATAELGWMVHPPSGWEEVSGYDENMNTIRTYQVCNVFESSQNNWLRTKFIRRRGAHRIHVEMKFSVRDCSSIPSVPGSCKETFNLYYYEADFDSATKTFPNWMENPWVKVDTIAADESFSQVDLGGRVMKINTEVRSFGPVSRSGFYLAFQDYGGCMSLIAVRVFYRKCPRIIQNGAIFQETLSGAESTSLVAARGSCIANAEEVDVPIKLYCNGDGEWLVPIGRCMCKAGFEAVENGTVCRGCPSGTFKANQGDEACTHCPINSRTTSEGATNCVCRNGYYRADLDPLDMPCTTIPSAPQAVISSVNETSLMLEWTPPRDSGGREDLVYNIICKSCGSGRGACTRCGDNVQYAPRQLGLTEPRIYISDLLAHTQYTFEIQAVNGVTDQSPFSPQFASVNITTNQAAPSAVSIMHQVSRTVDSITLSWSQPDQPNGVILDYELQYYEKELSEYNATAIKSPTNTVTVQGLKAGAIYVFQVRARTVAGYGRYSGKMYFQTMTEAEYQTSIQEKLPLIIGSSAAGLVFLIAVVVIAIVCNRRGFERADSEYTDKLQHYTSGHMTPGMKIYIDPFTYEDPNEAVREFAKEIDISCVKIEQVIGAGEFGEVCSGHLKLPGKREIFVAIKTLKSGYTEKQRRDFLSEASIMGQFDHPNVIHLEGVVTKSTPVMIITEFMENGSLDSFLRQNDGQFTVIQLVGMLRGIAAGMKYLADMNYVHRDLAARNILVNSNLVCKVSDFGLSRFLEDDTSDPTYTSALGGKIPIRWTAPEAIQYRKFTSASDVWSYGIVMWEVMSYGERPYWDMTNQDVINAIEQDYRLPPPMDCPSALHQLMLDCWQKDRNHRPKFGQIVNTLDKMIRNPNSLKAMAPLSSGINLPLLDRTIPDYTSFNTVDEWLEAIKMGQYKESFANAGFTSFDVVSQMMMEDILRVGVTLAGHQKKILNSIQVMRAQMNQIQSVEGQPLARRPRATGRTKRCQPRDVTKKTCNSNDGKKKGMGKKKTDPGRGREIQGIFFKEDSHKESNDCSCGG

P-gp/BCRP = P-gp/BCRP efflux substrate status; format: in vitro ADME; conditions: belvarafenib, own experiments

EPHA2, sequence (P29317 24-976, species assumed): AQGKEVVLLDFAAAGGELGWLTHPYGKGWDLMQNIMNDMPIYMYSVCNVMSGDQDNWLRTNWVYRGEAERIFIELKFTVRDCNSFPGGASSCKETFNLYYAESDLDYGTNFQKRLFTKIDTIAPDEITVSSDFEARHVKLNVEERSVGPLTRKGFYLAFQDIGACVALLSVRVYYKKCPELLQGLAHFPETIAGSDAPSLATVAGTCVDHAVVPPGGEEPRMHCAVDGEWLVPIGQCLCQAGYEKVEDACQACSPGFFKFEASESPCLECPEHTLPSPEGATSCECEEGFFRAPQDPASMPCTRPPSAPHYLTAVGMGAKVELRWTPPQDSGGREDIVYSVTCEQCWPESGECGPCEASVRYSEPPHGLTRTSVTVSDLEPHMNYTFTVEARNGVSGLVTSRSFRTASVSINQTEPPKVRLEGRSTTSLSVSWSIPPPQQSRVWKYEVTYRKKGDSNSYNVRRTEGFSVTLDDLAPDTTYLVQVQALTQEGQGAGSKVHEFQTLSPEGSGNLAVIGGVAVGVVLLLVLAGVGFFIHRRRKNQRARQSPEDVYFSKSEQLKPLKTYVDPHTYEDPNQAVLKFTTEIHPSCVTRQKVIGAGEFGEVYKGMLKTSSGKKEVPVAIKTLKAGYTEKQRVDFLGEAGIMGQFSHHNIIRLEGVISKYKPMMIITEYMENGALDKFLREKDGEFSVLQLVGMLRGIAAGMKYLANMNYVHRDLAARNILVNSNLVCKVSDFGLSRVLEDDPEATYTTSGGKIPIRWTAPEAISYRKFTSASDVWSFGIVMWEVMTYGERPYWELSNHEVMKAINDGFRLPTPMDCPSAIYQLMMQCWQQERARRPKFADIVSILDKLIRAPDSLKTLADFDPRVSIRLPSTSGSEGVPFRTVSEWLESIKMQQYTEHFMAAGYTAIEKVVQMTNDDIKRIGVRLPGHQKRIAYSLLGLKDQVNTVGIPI
RAF-1 (CRAF), sequence (P04049 whole entry): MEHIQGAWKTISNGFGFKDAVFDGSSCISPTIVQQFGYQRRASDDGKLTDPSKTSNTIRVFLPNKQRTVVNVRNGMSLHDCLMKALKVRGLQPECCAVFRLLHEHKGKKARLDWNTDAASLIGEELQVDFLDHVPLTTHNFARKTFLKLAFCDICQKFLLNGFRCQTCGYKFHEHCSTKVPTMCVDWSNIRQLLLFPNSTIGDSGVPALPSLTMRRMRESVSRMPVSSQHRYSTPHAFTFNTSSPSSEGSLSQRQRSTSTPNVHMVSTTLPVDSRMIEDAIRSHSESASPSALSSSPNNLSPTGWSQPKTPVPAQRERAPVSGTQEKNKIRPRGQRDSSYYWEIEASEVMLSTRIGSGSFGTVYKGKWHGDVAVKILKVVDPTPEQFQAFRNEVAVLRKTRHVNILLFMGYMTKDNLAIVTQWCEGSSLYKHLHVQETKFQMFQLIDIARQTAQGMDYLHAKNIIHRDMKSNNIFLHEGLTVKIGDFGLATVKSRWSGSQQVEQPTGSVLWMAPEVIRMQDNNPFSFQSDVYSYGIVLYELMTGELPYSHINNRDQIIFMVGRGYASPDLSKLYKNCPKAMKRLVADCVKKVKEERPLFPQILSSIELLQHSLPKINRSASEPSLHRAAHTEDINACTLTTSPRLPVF

Structure (SMILES): Cc1ccc2c(Nc3cccc(Cl)c3F)nccc2c1NC(=O)c1csc2c(N)ncnc12 [Belvarafenib, 4-amino-N-(1-((3-chloro-2-fluorophenyl)amino)-6-methylisoquinolin-5-yl)thieno[3,2-d]pyrimidine-7-carboxamide]
- inhibition at 1 µM (EPHA2): > 90%
- IC50 (RAF-1 (CRAF)): 2 nM
- Kp ([1]; oral 30 mg/kg, AUClast brain / AUClast plasma, read-out: B/P ratio): 0.8
- Cmax ([1]; oral 30 mg/kg, brain): 6100 ng/g
- Tmax ([1]; oral 30 mg/kg, brain): 7 h
- AUC(0-t) ([1]; oral 30 mg/kg, plasma): 133 µg·h/mL
- Cmax ([1]; oral 30 mg/kg, plasma): 6210 ng/mL
- Tmax ([1]; oral 30 mg/kg, plasma): 7 h
- Kp ([1]; male, brain/plasma, oral, 15 mg/kg, read-out: B/P): 0.93
- MRT last ([1]; male, in vivo, oral 15 mg/kg, plasma): 14.3 h
- Kp ([1]; male, oral 15 mg/kg, AUClast brain / AUClast plasma, read-out: B/P ratio): 0.929
- Cmax ([1]; male, oral 15 mg/kg, brain): 5240 ng/g
- MRT last ([1]; male, oral 15 mg/kg, brain): 11.8 h
- Tmax ([1]; male, oral 15 mg/kg, brain): 7 h
- half-life ([1]; male, oral 15 mg/kg, brain): 6.3 h
- AUC(0-inf) ([1]; male, oral 15 mg/kg, plasma): 84.3 µg·h/mL
- AUC(0-t) ([1]; male, oral 15 mg/kg, plasma): 84.3 µg·h/mL
- Cmax ([1]; male, oral 15 mg/kg, plasma): 4780 ng/mL
- Tmax ([1]; male, oral 15 mg/kg, plasma): 4 h
- half-life ([1]; male, oral 15 mg/kg, plasma): 6.6 h
- AUC(0-inf) ([1]; male, oral 30 mg/kg, plasma): 133 µg·h/mL
- AUC(0-t) ([1]; male, oral 30 mg/kg, plasma): 133 µg·h/mL
- AUCinf ([1]; oral 15 mg/kg, brain): 78297.5 ng·h/g
- AUClast ([1]; oral 15 mg/kg, brain): 78259.6 ng·h/g
- AUCinf ([1]; oral 30 mg/kg, brain): 100848.0 ng·h/g
- AUClast ([1]; oral 30 mg/kg, brain): 100735.8 ng·h/g
- general clinical signs ([1]; single oral 15 mg/kg, pre- and post-dosing periods): No clinical signs were observed
- inhibition at 1 µM (EPHB2): > 90%
- P-gp/BCRP efflux substrate? (P-gp/BCRP): is not a P-gp and a BCRP efflux substrate and No
